Assay results taken from ChEMBL document CHEMBL6177966, “Sclerotiorin-Type Azaphilones Isolated from a Marine-Derived Fungus Microsphaeropsis arundinis P1B” (J Nat Prod, 2025).
Activity calls are given as the source filed them. The rule behind the calls is not given here.

Legend:
RAW264.7 [1] = test: Cytotoxicity against mouse RAW264.7 cells assessed as cell viability at 20 to 40 uM incubated for 24 hrs by CCK8 assay; format: toxicity, cell-based; conditions: raw264.7, 24 h, dose 20-40 µM
RAW264.7 [2] = test: Anti-inflammatory activity in LPS-induced mouse RAW264.7 cells assessed as inhibition of NO production incubated for 24 hrs by Griess reagent based microplate reader analysis; format: functional, cell-based; conditions: RAW264.7, 24 h
RAW264.7 [3] = test: Anti-inflammatory activity in LPS-induced mouse RAW264.7 cells assessed as reduction in iNOS level pre-incubated with compound for 1 hr followed by LPS induction and measured after 6 hrs by Western blot analysis; format: functional, cell-based; conditions: dose 5-40 µM
RAW264.7 [4] = test: Anti-inflammatory activity in LPS-induced mouse RAW264.7 cells assessed as reduction in COX-2 level pre-incubated with compound for 1 hr followed by LPS induction and measured after 6 hrs by Western blot analysis; format: functional, cell-based; conditions: dose 5-40 µM
RAW264.7 [5] = test: Anti-inflammatory activity in LPS-induced mouse RAW264.7 cells assessed as downregulation of iNOS mRNA transcription at 10 to 40 uM pre-incubated with compound for 1 hr followed by LPS induction and measured after 6 hrs by qRT-PCR analysis; format: functional, cell-based; conditions: dose 10-40 µM
RAW264.7 [6] = test: Anti-inflammatory activity in LPS-induced mouse RAW264.7 cells assessed as downregulation of TNF-alpha mRNA transcription at 10 to 40 uM pre-incubated with compound for 1 hr followed by LPS induction and measured after 6 hrs by qRT-PCR analysis; format: functional, cell-based; conditions: dose 10-40 µM
RAW264.7 [7] = test: Anti-inflammatory activity in LPS-induced mouse RAW264.7 cells assessed as downregulation of IL-6 mRNA transcription at 10 to 40 uM pre-incubated with compound for 1 hr followed by LPS induction and measured after 6 hrs by qRT-PCR analysis; format: functional, cell-based; conditions: dose 10-40 µM
RAW264.7 [8] = test: Inhibition of MAPK signalling pathway in LPS-induced mouse RAW264.7 cells assessed as downregulation of ERK1/2 phosphorylation pre-incubated with compound for 1 hr followed by LPS induction and measured after 10 mins by Western blot analysis; format: cell-based; conditions: dose 5-40 µM
RAW264.7 [9] = test: Effect on P38 phosphorylation in LPS-induced mouse RAW264.7 cells at 5 to 40 uM pre-incubated with compound for 1 hr followed by LPS induction and measured after 10 mins by Western blot analysis; format: functional, cell-based; conditions: dose 5-40 µM
RAW264.7 [10] = test: Effect on JNK phosphorylation in LPS-induced mouse RAW264.7 cells at 5 to 40 uM pre-incubated with compound for 1 hr followed by LPS induction and measured after 10 mins by Western blot analysis; format: functional, cell-based; conditions: dose 5-40 µM
RAW264.7 [11] = test: Anti-inflammatory activity in LPS-induced mouse RAW264.7 cells assessed as inhibition of NO production; format: functional, cell-based

Row | Structure (SMILES) | Activity (RAW264.7 [1]) | further results
1 | C[C@H]1CCO[C@@H]1[C@@](C)(O)/C=C/C1=CC2=CC(=O)[C@](C)(O)[C@@H](O)[C@@H]2CO1 | Non-toxic | 
2 | C[C@H]1CC(=O)O[C@@H]1[C@@](C)(O)/C=C/C1=CC2=CC(=O)[C@](C)(O)[C@@H](O)[C@@H]2CO1 | Non-toxic | 
3 | C[C@H]1CCO[C@@H]1[C@](C)(O)/C=C/C1=CC2=CC(=O)[C@](C)(O)[C@@H](O)[C@]2(O)CO1 | Non-toxic | 
4 | C[C@H]1CC(=O)O[C@@H]1[C@](C)(O)/C=C/C1=CC2=CC(=O)[C@](C)(O)[C@@H](O)C2=CO1 | Non-toxic | 
5 | C[C@H]1CC(=O)O[C@@H]1[C@@](C)(O)/C=C/C1=CC2=C(Cl)C(=O)[C@](C)(O)[C@H](O)[C@@H]2CO1 | Non-toxic | 
6 | C[C@H]1CC(=O)O[C@@H]1[C@](C)(O)/C=C/C1=CC2=CC(=O)[C@](C)(O)[C@@H](O)[C@@H]2CO1 | Non-toxic | IC50 (RAW264.7 [2]): 16.7 µM; Activity (RAW264.7 [3]): Dose-dependent-effect; Activity (RAW264.7 [4]): Dose-dependent-effect; Activity (RAW264.7 [5]): Active; Activity (RAW264.7 [6]): Active; Activity (RAW264.7 [7]): Active; inhibition (RAW264.7 [8]): Dose-dependent-effect; Activity (RAW264.7 [9]): inactive; Activity (RAW264.7 [10]): inactive
7 | C[C@H]1CCO[C@@H]1[C@@](C)(O)/C=C/C1=CC2=CC(=O)[C@](C)(O)[C@@H](O)[C@]2(O)CO1 | Non-toxic | 
8 | C[C@H]1CC(=O)O[C@@H]1[C@](C)(O)/C=C/C1=CC2=CC(=O)[C@](C)(O)[C@@H](O)[C@H]2CO1 | Non-toxic | 
9 | O=c1c(O)c(-c2ccc(O)c(O)c2)oc2cc(O)cc(O)c12 [QUERCETIN] |  | IC50 (RAW264.7 [11]): 15.3 µM
10 | C[C@H]1CC(=O)O[C@@H]1[C@](C)(O)/C=C/C1=CC2=C(Cl)C(=O)[C@](C)(O)[C@H](O)[C@@H]2CO1 | Non-toxic | 
11 | C[C@H]1CC(=O)O[C@@H]1[C@@](C)(O)/C=C/C1=CC2=CC(=O)[C@](C)(O)[C@@H](O)[C@H]2CO1 | Non-toxic | 
12 | C[C@H]1CCO[C@@H]1[C@](C)(O)/C=C/C1=CC2=CC(=O)[C@](C)(O)[C@@H](O)[C@@H]2CO1 | Non-toxic | 
13 | C[C@H]1CC(=O)O[C@@H]1[C@@](C)(O)/C=C/C1=CC2=CC(=O)[C@](C)(O)[C@@H](O)C2=CO1 | Non-toxic | 
